Like-named read-outs stand apart in the source and are kept apart here.
Key:
[1] = system: JJN-3 (NIK translocated) multiple myeloma cells; assay: Antiproliferative activity on JJN-3 multiple myeloma cells (CellTiter-Glo); type: cell-based, human; details: Homo sapiens, JJN-3 (NIK translocated) cells, 96 hr treatment, averaged values, read-out: JJN-3 Proliferation inhibition (IC50 (nM))
Procedure: (§1) Determination of Antiproliferative Activity on JJN-3 (NIK Translocated) and KMS12-BM (NIK WT) Multiple Myeloma Cells
(§2) All compounds tested were dissolved in DMSO and further dilutions were made in culture medium. Final DMSO concentration was 0.3% (v/v) in cell proliferation assays. Viability was assessed using CellTiter-Glo cell viability assay kit (Promega). […] Cells were routinely kept as suspension cells at 37° C. in a humidified 5% CO2 atmosphere. Cells were passaged at a seeding density of 0.2×10^6/ml twice a week. Cells were seeded in black tissue culture treated 96-well plates (Perkin Elmer). Densities used for plating ranged from 15000 (JJN3) to 20000 (KMS12BM) cells per well in a total volume of 135 μl medium. Drugs and/or solvents were added (15 μl) to a final volume of 150 μl. Following 96 hr of treatment, plates were removed from the incubator and allowed to equilibrate to room temperature for approx 10 min. 75 μl CellTiter-Glo reagent was added to each well that was then covered (Perkin Elmer Topseal) and shaken on plate shaker for 10 min. Luminescence was measured on a HTS Topcount (Perkin Elmer). […] For initial screening purposes, compounds were tested using a 9 point dilution curve (serial 1:3 dilutions). For each experiment, controls (containing no drug) and a blank incubation (containing cells read at the time of compound addition) were run in parallel. The blank value was subtracted from all control and sample values. For each sample, the mean value for cell growth (in relative light units) was expressed as a percentage of the mean value for cell growth of the control.

[2] = target: recombinant human NF-kappaB-inducing Kinase (NIK/MAP3K14) (Homo sapiens, UniProt Q99558); assay: Inhibition of auto-phosphorylation of recombinant human NIK/MAP3K14 activity (AlphaScreen); type: biochemical; details: 25 microM ATP, averaged over all measurements on all batches
Procedure: Pharmacological Part Biological assay A Inhibition of auto-phosphorylation of recombinant human NF-kappaB-inducing Kinase (NIK/MAP3K14) Activity (AlphaScreen®)
NIK/MAP3K14 auto-phosphorylation activity was measured using the AlphaScreen® (αscreen) format (Perkin Elmer). All compounds tested were dissolved in dimethyl sulfoxide (DMSO) and further dilutions were made in assay buffer. Final DMSO concentration was 1% (v/v) in assays. Assay buffer was 50 mM Tris pH 7.5 containing 1 mM EGTA (ethylene glycol tetraacetic acid), 1 mM DTT (dithiothreitol), 0.1 mM Na3VO4, 5 mM MgCl2, 0.01% Tween® 20. Assays were carried out in 384 well Alphaplates (Perkin Elmer). […] Incubations were initiated by addition of GST-tagged NIK/MAP3K14 enzyme, carried out for 1 h at 25° C. and terminated by addition of stop buffer containing anti-phospho-IKK Ser176/180 antibody. Protein A Acceptor and Glutathione-Donor beads were added before reading using an EnVision® Multilabel Plate Reader (Perkin Elmer). Signal obtained in the wells containing blank samples was subtracted from all other wells and IC50's were determined by fitting a sigmoidal curve to % inhibition of control versus Log10 compound concentration.

[3] = system: KMS12-BM (NIK WT) multiple myeloma cells; assay: Antiproliferative activity on KMS12-BM multiple myeloma cells (CellTiter-Glo); type: cell-based, human; details: Homo sapiens, KMS-12-BM, 96 hr treatment, averaged values, read-out: KMS-12 Proliferation inhibition (IC50 (nM))
Procedure: as §1, §2

Chain of recombinant human NF-kappaB-inducing Kinase (NIK/MAP3K14) (Q99558 whole entry): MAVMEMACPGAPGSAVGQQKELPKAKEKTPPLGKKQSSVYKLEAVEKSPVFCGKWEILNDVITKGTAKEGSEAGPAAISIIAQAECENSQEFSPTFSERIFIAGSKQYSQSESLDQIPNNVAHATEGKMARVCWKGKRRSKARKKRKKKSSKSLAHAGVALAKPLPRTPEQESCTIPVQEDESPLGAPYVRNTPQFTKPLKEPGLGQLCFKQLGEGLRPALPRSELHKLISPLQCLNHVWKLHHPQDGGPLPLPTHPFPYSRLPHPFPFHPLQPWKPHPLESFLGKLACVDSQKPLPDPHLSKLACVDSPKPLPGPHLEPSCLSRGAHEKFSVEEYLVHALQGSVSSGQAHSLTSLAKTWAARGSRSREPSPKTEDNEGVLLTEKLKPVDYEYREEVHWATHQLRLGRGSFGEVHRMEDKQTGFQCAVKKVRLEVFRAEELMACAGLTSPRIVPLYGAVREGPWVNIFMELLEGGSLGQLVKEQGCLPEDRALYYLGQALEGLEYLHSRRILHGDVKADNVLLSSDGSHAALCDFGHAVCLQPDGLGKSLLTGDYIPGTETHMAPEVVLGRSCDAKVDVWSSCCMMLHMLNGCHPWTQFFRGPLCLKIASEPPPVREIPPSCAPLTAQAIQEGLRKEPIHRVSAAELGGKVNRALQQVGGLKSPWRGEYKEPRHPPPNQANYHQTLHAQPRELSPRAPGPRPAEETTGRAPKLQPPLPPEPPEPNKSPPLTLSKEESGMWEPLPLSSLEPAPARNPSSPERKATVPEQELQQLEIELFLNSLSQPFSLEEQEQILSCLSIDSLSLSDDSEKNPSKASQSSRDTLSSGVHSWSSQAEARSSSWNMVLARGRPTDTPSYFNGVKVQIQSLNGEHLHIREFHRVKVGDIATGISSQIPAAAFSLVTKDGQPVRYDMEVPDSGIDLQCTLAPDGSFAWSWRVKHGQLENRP

Compound	IC50 ([1]; JJN-3, 96 h) [nM]	IC50 [2] [nM]	melting point [°C]	IC50 ([3]; 96 h) [nM]	IC50 [1] [nM]	IC50 [3] [nM]
CC1(CO)CNc2c(C#N)cc(-c3ccnc(Nc4cccnc4C(F)(F)F)n3)cc21 (stereo not shown) [Compound 31]	2000	9.8	202	> 10000	–	–
COCCOc1ncc(Cl)cc1Nc1nccc(-c2cc(C#N)c3c(c2)[C@@](C)(CO)CN3)n1 [Compound 39]	324	8.5	204	> 10000	–	–
[2H]C([2H])([2H])Oc1ncccc1Nc1nccc(-c2cc(C#N)c3c(c2)C(C)(CO)CN3)n1 (stereo not shown) [Compound 17]	288	2.5	248	> 10000	–	–
COCCNc1nc(OC)c(Nc2nccc(-c3cc(C#N)c4c(c3)[C@@](C)(CO)CN4)n2)cc1Cl [Compound 10]	58	8.5	231	> 10000	–	–
C[C@]1(CO)CNc2c(C#N)cc(-c3ccnc(Nc4cccn(CC(O)CO)c4=O)n3)cc21 (stereo partly shown) [Compound 31i]	~5010	3.3	> 250	> 10000	–	–
COCCOc1ncccc1Nc1ncc(F)c(-c2cc(C#N)c3c(c2)[C@@](C)(CO)CN3)n1 [Compound 106]	275	3.4	> 250	2630	–	–
COCCOc1ccncc1Nc1nccc(-c2cc(C#N)c3c(c2)[C@@](C)(CO)CN3)n1 [Compound 47]	1120	13.2	215	> 10000	–	–
COc1ncccc1Nc1nccc(-c2cc(C#N)c3c(c2)C(C)(COCCN2CCOCC2)CN3)n1 (stereo not shown) [Compound 117]	> 10000	45.7	108	> 10000	–	–
CCOC(=O)c1ccc(Nc2nccc(-c3cc(C#N)c4c(c3)C(C)(CO)CN4)n2)cn1 (stereo not shown) [Compound 9]	219	5.3	238	427	–	–
COCCCn1cccc(Nc2nccc(-c3cc(C#N)c4c(c3)[C@@](C)(CO)CN4)n2)c1=O [Compound 10i]	339	3	192	4790	–	–
CC1(CO)CNc2c(C#N)cc(-c3ccnc(Nc4cc(Cl)cnc4Cl)n3)cc21 (stereo not shown) [Compound 5]	170	~8.51	261	> 10000	–	–
COc1ncccc1Nc1nccc(-c2cc(C#N)c3c(c2)C(C)(CN(C)CCO)CN3)n1 (stereo not shown) [Compound 114]	3550	32.4	60	> 10000	–	–
COc1ncc(Cl)cc1Nc1nccc(-c2cc(C#N)c3c(c2)[C@@](C)(CO)CN3)n1 [Compound 14]	372	5.5	266	> 10000	–	–
COCCNc1ccc(Nc2nccc(-c3cc(C#N)c4c(c3)C(C)(CO)CN4)n2)c(OC)n1 (stereo not shown) [Compound 12]	589	12.9	120	> 10000	–	–
C[C@]1(CO)CNc2c(C#N)cc(-c3ccnc(Nc4cccnc4OC[C@H]4CCCO4)n3)cc21 [Compound 43]	115	4	141	> 10000	–	–
COc1ncc(Cl)cc1Nc1nccc(-c2cc(C#N)c3c(c2)C(C)(CO)CN3)n1 (stereo not shown) [Compound 3]	81	8.3	254	> 10000	–	–
COc1ncccc1Nc1ncc(F)c(-c2cc(C#N)c3c(c2)C(C)(CO)CN3)n1 (stereo not shown) [Compound 101]	204	2.2	> 250	2460	–	–
COc1ncccc1Nc1ncc(F)c(-c2cc(C#N)c3c(c2)[C@@](C)(CO)CN3)n1 [Compound 103]	120	1	> 250	1580	–	–
COCCNc1nc(OC)c(Nc2nccc(-c3cc(C#N)c4c(c3)[C@](C)(CO)CN4)n2)cc1Cl [Compound 11]	~347	10.5	236	> 10000	–	–
COCCOc1nc(C(F)(F)F)ccc1Nc1nccc(-c2cc(C#N)c3c(c2)[C@@](C)(CO)CN3)n1 [Compound 53]	3470	95.5	190	> 10000	–	–
CC1(CO)CNc2c(C#N)cc(-c3nc(Nc4cc(Cl)cnc4OC4CCOCC4)ncc3F)cc21 (stereo not shown) [Compound 105]	2240	30.9	284	~3720	–	–
CC(C)OCCOc1ncc(Cl)cc1Nc1nccc(-c2cc(C#N)c3c(c2)[C@@](C)(CO)CN3)n1 [Compound 21]	–	22.4	170	–	813	> 10000
COc1ncc(Cl)cc1Nc1ncc(F)c(-c2cc(C#N)c3c(c2)C(C)(CO)CN3)n1 (stereo not shown) [Compound 102]	1580	6.5	> 250	> 10000	–	–
COc1ncccc1Nc1nccc(-c2cc(C#N)c3c(c2)C(C)(COCCNC(C)C)CN3)n1 (stereo not shown) [Compound 116]	2040	85.1	95	> 10000	–	–
COc1ncc(Cl)cc1Nc1nccc(-c2cc(C#N)c3c(c2)C(C)(COCCNC2CC2)CN3)n1 (stereo not shown) [Compound 119]	1290	129	106	2000	–	–
CC1(CO)CNc2c(C#N)cc(-c3ccnc(Nc4cncnc4)n3)cc21 (stereo not shown) [Compound 128]	209	6.3	307	~195	–	–
COc1cccnc1Nc1nccc(-c2cc(C#N)c3c(c2)[C@@](C)(CO)CN3)n1 [Compound 24]	6920	123	145	> 10000	–	–
C[C@]1(CO)CNc2c(C#N)cc(-c3ccnc(Nc4cccnc4OCC4CC4)n3)cc21 [Compound 45]	195	9.1	138	> 10000	–	–
